In ChEMBL document CHEMBL1143467, “Synthesis of potent and selective serotonin 5-HT1B receptor ligands” (Bioorg Med Chem Lett, 2005):

How the values were obtained:
[1] = molecular target: D(3) dopamine receptor (Homo sapiens, UniProt P35462); experiment: Affinity towards cloned Dopamine receptor D3
[2] = molecular target: D(2) dopamine receptor (Homo sapiens, UniProt P14416); experiment: Affinity towards cloned Dopamine receptor D2
[3] = molecular target: D(1B) dopamine receptor (Homo sapiens, UniProt P21918); experiment: Affinity towards cloned Dopamine receptor D5
Sequence of D(1B) dopamine receptor (P21918 whole entry): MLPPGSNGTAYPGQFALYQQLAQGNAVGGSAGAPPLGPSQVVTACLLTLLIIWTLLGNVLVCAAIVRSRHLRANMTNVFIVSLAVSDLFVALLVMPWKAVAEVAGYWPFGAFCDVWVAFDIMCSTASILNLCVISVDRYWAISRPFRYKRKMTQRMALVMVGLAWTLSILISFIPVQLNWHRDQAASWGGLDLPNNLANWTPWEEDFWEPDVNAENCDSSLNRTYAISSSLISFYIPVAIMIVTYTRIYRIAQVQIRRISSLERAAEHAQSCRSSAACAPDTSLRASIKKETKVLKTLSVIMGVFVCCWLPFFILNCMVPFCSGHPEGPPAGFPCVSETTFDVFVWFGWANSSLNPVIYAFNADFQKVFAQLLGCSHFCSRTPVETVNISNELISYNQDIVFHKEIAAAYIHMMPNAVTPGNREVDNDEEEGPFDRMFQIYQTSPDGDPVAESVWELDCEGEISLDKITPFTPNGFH

[4] = molecular target: 5-hydroxytryptamine receptor 6 (Homo sapiens, UniProt P50406); experiment: In vitro binding affinity towards cloned human 5-HT6 receptor using [3H]5-carboximidotryptamine as radioligand
Sequence of 5-hydroxytryptamine receptor 6 (P50406 whole entry): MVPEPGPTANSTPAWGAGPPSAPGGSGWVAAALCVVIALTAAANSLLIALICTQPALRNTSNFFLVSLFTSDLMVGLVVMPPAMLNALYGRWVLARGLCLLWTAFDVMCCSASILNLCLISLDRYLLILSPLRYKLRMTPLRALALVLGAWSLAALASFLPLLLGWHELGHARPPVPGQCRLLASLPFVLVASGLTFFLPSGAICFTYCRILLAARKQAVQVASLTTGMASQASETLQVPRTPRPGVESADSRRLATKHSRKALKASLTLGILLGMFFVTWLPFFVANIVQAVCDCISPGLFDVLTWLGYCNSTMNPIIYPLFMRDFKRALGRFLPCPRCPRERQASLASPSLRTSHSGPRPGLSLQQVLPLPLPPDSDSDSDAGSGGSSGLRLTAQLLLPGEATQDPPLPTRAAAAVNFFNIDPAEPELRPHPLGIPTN

[5] = molecular target: 5-hydroxytryptamine receptor 7 (Homo sapiens, UniProt P34969); experiment: In vitro binding affinity towards cloned human 5-HT7 receptor using [3H]5-carboximidotryptamine as radioligand
Sequence of 5-hydroxytryptamine receptor 7 (P34969 whole entry): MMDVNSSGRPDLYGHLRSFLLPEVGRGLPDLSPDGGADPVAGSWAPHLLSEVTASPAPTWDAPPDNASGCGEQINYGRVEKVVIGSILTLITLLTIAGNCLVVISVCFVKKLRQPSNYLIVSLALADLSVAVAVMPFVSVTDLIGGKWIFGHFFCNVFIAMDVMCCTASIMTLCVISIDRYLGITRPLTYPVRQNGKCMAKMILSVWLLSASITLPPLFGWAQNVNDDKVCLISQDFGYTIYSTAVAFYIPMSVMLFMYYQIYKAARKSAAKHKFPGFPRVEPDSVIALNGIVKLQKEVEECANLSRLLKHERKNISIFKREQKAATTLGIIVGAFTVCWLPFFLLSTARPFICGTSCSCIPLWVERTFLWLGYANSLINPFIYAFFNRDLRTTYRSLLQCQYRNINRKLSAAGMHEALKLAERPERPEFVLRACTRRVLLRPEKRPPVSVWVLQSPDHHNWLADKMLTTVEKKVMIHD

[6] = molecular target: Kappa-type opioid receptor (Homo sapiens, UniProt P41145); experiment: Affinity towards cloned Opioid receptor kappa 1
Sequence of Kappa-type opioid receptor (P41145 whole entry): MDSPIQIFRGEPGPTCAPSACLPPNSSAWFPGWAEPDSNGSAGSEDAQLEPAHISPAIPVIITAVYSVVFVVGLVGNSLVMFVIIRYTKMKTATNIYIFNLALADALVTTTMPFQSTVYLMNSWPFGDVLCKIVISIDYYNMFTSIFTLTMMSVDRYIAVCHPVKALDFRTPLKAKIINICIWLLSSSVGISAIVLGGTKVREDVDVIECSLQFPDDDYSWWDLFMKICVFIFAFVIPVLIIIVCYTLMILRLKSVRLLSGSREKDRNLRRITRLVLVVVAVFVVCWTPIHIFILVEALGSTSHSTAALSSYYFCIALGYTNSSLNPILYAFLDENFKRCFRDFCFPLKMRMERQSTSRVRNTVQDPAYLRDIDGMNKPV

[7] = molecular target: T1, 5-hydroxytryptamine receptor 2C (Homo sapiens, UniProt P28335); experiment: In vitro binding affinity towards cloned human 5-HT2C receptor using [3H]5-carboximidotryptamine as radioligand
T1 sequence (P28335 whole entry): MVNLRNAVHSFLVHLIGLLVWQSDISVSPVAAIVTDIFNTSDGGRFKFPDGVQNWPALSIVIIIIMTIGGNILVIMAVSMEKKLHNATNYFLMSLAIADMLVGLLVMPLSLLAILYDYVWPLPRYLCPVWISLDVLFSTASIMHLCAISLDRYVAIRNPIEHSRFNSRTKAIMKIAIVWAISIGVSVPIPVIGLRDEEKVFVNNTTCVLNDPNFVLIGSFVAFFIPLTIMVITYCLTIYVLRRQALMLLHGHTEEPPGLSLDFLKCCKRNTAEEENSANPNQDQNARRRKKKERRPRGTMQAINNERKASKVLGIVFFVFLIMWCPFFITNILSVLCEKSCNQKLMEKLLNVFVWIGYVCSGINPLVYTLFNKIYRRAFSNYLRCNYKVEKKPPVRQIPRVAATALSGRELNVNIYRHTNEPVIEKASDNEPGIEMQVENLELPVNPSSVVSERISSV

[8] = molecular target: T2, Muscarinic acetylcholine receptor M2 (Homo sapiens, UniProt P08172); experiment: Affinity towards cloned Muscarinic acetylcholine receptor M2
T2 sequence (P08172 whole entry): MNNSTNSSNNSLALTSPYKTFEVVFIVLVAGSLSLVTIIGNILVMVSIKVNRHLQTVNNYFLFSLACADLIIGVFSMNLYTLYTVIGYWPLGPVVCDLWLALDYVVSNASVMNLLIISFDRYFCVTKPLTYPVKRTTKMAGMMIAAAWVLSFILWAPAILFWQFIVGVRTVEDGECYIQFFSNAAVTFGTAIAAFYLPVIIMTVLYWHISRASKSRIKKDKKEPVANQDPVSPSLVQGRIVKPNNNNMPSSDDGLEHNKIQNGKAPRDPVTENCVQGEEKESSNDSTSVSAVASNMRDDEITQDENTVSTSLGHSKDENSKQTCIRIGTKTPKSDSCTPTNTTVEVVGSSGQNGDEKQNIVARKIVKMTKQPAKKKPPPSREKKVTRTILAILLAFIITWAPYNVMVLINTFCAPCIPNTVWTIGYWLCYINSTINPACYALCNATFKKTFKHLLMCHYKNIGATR

[9] = molecular target: 5-hydroxytryptamine receptor 2A (Homo sapiens, UniProt P28223); experiment: In vitro binding affinity towards cloned human 5-HT2A receptor using [3H]5-carboximidotryptamine as radioligand
[10] = molecular target: 5-hydroxytryptamine receptor 1B (Homo sapiens, UniProt P28222); experiment: In vitro binding affinity towards cloned human 5-HT1B receptor using [3H]5-carboximidotryptamine as radioligand
[11] = molecular target: D(1A) dopamine receptor (Homo sapiens, UniProt P21728); experiment: Affinity towards cloned Dopamine receptor D1
Sequence of D(1A) dopamine receptor (P21728 whole entry): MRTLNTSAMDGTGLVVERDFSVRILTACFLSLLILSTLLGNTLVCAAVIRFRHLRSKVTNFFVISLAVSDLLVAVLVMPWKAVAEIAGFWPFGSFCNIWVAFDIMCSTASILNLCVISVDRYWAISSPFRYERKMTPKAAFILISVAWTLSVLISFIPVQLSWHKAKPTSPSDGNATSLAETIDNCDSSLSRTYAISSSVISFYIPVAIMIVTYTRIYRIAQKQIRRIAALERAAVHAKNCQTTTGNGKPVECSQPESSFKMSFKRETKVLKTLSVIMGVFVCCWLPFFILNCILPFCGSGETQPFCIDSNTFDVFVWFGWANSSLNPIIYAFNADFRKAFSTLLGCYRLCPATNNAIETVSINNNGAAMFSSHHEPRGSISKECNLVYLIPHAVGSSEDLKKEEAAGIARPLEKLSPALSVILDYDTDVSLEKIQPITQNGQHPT

[12] = molecular target: Histamine H1 receptor (Homo sapiens, UniProt P35367); experiment: Affinity towards cloned Histamine H1 receptor
Sequence of Histamine H1 receptor (P35367 whole entry): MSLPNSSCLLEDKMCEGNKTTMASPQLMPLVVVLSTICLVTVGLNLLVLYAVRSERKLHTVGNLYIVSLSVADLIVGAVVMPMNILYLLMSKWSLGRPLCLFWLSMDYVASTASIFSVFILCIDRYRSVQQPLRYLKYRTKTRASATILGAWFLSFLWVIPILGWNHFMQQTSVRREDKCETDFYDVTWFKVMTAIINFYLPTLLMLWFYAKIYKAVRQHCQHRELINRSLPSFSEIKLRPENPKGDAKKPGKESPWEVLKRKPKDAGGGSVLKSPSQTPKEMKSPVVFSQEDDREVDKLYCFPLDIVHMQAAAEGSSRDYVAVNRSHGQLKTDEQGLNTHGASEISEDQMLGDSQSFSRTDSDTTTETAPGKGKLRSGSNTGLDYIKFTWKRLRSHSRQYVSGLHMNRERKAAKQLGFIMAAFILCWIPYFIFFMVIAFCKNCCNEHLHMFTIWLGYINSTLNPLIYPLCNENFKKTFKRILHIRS

[13] = molecular target: T3, D(4) dopamine receptor (Homo sapiens, UniProt P21917); experiment: Affinity towards cloned Dopamine receptor D4
T3 sequence (P21917 whole entry): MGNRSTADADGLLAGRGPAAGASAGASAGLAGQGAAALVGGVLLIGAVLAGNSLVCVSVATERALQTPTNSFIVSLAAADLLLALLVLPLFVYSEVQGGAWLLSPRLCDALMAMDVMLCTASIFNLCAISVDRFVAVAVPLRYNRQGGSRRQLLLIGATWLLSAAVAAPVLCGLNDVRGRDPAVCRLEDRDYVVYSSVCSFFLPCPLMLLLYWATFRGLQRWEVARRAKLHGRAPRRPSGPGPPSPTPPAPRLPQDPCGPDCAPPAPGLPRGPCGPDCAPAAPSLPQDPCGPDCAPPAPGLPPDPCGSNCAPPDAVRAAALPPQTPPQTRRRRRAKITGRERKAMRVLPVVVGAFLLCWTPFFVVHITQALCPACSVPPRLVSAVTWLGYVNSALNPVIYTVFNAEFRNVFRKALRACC

[14] = Affinity towards cloned Nicotinic acetylcholine receptor
[15] = molecular target: T4, Muscarinic acetylcholine receptor M5 (Homo sapiens, UniProt P08912); experiment: Affinity towards cloned Muscarinic acetylcholine receptor M5
T4 sequence (P08912 whole entry): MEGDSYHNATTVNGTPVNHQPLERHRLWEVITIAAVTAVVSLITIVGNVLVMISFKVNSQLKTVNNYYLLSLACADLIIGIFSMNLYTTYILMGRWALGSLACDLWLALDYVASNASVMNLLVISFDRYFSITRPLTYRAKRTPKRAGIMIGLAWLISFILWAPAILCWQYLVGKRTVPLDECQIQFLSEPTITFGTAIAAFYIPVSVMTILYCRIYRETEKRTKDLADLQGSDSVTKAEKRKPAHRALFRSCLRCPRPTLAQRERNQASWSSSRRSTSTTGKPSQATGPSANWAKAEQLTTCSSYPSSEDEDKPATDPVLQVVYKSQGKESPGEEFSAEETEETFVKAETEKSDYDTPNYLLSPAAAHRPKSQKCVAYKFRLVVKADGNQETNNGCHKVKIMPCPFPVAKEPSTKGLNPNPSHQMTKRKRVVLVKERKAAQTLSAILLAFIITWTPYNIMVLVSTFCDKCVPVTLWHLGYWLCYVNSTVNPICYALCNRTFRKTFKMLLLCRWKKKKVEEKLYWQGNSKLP

[16] = molecular target: Mu-type opioid receptor (Homo sapiens, UniProt P35372); experiment: Affinity towards cloned Opioid receptor mu 1
Sequence of Mu-type opioid receptor (P35372 whole entry): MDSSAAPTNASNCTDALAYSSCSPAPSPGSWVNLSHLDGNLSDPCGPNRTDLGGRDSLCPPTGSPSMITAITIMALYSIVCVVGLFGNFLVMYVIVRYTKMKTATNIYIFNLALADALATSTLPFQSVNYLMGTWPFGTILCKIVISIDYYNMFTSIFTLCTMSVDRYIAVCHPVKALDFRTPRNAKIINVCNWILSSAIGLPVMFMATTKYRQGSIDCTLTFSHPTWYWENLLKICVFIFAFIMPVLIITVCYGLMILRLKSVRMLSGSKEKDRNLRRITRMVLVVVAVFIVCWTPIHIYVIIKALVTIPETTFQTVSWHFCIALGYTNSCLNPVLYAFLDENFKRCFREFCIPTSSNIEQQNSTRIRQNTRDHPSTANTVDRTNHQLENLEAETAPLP

[17] = molecular target: Delta-type opioid receptor (Homo sapiens, UniProt P41143); experiment: Affinity towards cloned Opioid receptor delta 1
Sequence of Delta-type opioid receptor (P41143 whole entry): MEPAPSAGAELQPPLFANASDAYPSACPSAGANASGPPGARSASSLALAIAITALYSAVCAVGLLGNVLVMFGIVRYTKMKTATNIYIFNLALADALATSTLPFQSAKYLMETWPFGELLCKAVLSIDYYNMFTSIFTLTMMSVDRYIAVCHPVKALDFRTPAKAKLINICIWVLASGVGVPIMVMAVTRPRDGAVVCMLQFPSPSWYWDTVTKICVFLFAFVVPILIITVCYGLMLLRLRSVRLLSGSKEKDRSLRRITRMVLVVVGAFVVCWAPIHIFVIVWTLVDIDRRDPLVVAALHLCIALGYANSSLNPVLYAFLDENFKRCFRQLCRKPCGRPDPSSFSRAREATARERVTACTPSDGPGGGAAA

[18] = molecular target: T5, Muscarinic acetylcholine receptor M4 (Homo sapiens, UniProt P08173); experiment: Affinity towards cloned Muscarinic acetylcholine receptor M4
T5 sequence (P08173 whole entry): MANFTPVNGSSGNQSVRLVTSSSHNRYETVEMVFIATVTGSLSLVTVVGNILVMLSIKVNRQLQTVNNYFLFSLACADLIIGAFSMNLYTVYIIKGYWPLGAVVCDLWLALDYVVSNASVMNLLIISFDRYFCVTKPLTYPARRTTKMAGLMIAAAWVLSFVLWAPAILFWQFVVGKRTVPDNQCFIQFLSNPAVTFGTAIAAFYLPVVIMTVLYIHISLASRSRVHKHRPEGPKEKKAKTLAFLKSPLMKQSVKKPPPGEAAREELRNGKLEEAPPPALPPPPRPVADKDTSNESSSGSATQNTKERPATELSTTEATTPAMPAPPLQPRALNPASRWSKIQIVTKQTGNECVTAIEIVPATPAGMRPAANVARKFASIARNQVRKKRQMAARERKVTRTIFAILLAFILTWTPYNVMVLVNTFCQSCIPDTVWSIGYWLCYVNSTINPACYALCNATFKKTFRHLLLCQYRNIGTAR

[19] = molecular target: T6, Muscarinic acetylcholine receptor M1 (Homo sapiens, UniProt P11229); experiment: Affinity towards cloned Muscarinic acetylcholine receptor M1
T6 sequence (P11229 whole entry): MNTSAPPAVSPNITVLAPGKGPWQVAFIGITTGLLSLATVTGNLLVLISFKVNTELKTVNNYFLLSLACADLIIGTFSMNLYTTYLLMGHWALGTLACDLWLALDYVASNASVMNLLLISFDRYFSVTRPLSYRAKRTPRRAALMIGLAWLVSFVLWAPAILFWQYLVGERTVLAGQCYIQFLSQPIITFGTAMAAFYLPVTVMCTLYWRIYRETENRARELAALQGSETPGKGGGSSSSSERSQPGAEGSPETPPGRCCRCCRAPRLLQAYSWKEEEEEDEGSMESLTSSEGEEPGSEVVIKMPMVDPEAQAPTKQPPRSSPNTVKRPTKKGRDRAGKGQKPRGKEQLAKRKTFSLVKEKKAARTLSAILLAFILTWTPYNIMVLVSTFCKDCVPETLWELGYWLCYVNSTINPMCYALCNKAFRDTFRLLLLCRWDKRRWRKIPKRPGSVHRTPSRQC

[20] = molecular target: Muscarinic acetylcholine receptor M3 (Homo sapiens, UniProt P20309); experiment: Affinity towards cloned Muscarinic acetylcholine receptor M3
Sequence of Muscarinic acetylcholine receptor M3 (P20309 whole entry): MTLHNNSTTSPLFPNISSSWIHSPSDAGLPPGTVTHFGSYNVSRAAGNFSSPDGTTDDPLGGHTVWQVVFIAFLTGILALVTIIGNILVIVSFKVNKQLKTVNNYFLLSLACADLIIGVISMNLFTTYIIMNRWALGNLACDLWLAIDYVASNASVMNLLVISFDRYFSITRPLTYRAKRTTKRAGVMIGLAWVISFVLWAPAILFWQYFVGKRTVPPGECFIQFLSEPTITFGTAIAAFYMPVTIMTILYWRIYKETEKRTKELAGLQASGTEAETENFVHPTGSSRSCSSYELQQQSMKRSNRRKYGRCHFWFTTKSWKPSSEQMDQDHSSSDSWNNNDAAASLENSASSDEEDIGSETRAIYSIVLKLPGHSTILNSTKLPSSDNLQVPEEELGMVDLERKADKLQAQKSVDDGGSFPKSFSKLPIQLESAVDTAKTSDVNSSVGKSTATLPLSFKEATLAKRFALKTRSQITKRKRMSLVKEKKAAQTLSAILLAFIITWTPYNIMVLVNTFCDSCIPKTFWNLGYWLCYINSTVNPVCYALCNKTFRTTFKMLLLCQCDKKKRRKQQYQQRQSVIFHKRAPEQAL

[21] = molecular target: 5-hydroxytryptamine receptor 1D (Homo sapiens, UniProt P28221); experiment: In vitro binding affinity towards cloned human 5-HT1D receptor using [3H]5-carboximidotryptamine as radioligand
Sequence of 5-hydroxytryptamine receptor 1D (P28221 whole entry): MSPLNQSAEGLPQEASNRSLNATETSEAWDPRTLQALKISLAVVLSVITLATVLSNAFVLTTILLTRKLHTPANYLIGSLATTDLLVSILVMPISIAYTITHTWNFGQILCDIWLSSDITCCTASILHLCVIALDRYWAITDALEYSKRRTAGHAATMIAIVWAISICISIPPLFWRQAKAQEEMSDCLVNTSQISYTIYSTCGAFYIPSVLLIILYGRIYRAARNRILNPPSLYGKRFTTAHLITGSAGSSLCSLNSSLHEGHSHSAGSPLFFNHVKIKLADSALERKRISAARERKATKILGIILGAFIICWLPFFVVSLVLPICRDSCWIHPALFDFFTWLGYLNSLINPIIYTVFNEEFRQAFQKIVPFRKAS

Sequence of D(2) dopamine receptor (P14416 whole entry): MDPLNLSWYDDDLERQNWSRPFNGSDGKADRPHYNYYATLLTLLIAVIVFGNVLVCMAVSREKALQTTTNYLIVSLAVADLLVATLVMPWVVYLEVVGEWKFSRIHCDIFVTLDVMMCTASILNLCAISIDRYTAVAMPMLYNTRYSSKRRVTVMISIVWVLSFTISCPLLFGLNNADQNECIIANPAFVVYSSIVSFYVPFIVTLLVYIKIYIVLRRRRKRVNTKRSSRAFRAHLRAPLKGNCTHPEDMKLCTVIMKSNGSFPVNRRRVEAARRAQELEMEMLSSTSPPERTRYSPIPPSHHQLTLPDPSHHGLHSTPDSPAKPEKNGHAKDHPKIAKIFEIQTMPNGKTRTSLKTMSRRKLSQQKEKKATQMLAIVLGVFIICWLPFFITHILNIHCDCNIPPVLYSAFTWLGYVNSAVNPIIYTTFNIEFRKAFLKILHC

- Ki [1]: > 10 µM
- Ki [2]: > 10 µM
- Ki [3]: > 10 µM
- Ki [4]: 2.41 µM
- Ki [5]: 1.41 µM
- Ki [6]: > 10 µM
- Ki [7]: 1.94 µM
- Ki [8]: > 10 µM
- Ki [9]: 6.74 µM
- Ki [10]: 0.0124 µM
- Ki [11]: > 10 µM
- Ki [12]: > 10 µM
- Ki [13]: > 10 µM
- Ki [14]: > 10 µM
- Ki [15]: > 10 µM
- Ki [16]: > 10 µM
- Ki [17]: > 10 µM
- Ki [18]: > 10 µM
- Ki [19]: > 10 µM
- Ki [20]: > 10 µM
- Ki [21]: 0.106 µM
SMILES: COc1ccc(NC(=O)N2CCN(c3ccccc3OC)CC2)cc1N1CCN(C)CC1
